Paper PMC3088502 (Bioorganic & medicinal chemistry, 2011)

Experiments:
[1] = tested on: AKT phosphorylation at Ser473 in BxPC3 cells; experiment: Detection of pAKT; format: cell-based, Human; conditions: 10 μM, 4 h
BxPC3 cells = experiment: Cellular proliferation / cell survival micro-cytotoxicity; format: cell-based, Human

With CCCCCCCCCCCCc1ccc(S(=O)(=O)Nc2ccccc2)cc1 [Compound 45] the “Inhibition of AKT phosphorylation at Ser473 (pAKT), in words” value [1] was “did not inhibit the production of pAKT” and the “Inhibition of BxPC-3 cell proliferation, in words” value (BxPC3 cells) was “did inhibit BxPC-3 cell proliferation”.
